Drawing on patent US8440652B2, “MST1 kinase inhibitors and methods of their use” (Lexicon Pharmaceuticals, Inc., priority 2011, dated 2013), this text covers IC50 for 29 compounds.

The target of the assay is T1, MST1 (Homo sapiens, UniProt Q13043).
T1 sequence (Q13043 1-487): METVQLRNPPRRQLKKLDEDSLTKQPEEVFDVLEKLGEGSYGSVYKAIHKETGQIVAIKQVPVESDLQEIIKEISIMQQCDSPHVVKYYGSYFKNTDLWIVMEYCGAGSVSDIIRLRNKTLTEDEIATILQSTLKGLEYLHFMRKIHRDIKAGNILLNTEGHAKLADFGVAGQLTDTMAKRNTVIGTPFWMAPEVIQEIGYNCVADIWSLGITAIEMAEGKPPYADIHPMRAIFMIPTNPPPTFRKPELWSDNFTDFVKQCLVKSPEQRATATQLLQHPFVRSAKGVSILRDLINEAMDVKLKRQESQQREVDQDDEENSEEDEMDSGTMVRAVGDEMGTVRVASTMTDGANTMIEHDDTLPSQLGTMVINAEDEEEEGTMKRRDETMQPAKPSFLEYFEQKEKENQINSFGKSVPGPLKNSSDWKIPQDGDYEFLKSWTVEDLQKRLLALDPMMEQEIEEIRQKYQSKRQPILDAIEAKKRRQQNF
Nature of the assay: In vitro measurement of MST1 inhibition (Z′-Lyte kinase assay). It counts as biochemical.

Where [1] appears, read: 1 μM ATP, read-out: IC50 (μM) 1 μM ATP.
Setting [2] is: 50 μM ATP, read-out: IC50 (μM) 50 μM ATP.

The structures appear in SMILES notation. Like-named read-outs stand apart in the source and are kept apart here.

A word on the IC50: it is the concentration that gives 50% inhibition.

As for `CN(C1CC1)S(=O)(=O)c1ccc(-c2cnc(N)c(-c3ccc4c(c3)C3(CC3)CNC4=O)c2)cc1` [4-(6-amino-5-(1′-oxo-2′,3′-dihydro-1′H-spiro[cyclopropane-1,4′-isoquinolin]-6′-yl)pyridin-3-yl)-N-cyclopropyl-N-methylbenzenesulfonamide], the half-maximal inhibitory concentration (IC50) under setting [1] was less than 0.01 µM and the 50% inhibitory concentration (IC50) under setting [2] was less than 0.01 µM.
As to `Nc1ncc(-c2ccc(S(=O)(=O)NC3CC3)cc2)cc1-c1ccc2c(c1)C1(CC1)CNC2=O` [4-(6-amino-5-(1′-oxo-2′,3′-dihydro-1′H-spiro[cyclopropane-1,4′-isoquinolin]-6′-yl)pyridin-3-yl)-N-cyclopropylbenzenesulfonamide], the 50% inhibitory concentration (IC50) reads like this: under setting [1], less than 0.01 µM; under setting [2], less than 0.01 µM.
For the compound `CN(C1CC1)S(=O)(=O)c1ccc(-c2cnc(N)c(-c3ccc4c(c3)CCN(CCC#N)C4=O)c2)cc1` [4-(6-amino-5-(2-(2-cyanoethyl)-1-oxo-1,2,3,4-tetrahydroisoquinolin-6-yl)pyridin-3-yl)-N-cyclopropyl-N-methylbenzenesulfonamide], the half-inhibitory concentration (IC50) runs as follows: under setting [1], less than 0.15 µM; under setting [2], less than 0.05 µM.
The matching figures for `CN(C1CC1)S(=O)(=O)c1ccc(-c2cnc(N)c(-c3ccc4c(c3)CCCCC(=O)N4)c2)cc1` [4-(6-amino-5-(2-oxo-1,2,3,4,5,6-hexahydrobenzo[b]azocin-8-yl)pyridin-3-yl)-N-cyclopropyl-N-methylbenzenesulfonamide]: less than 0.15 µM and less than 0.05 µM.
Regarding `CCN(CC)S(=O)(=O)c1ccc(-c2cnc(N)c(-c3ccc4c(c3)CCCC(=O)N4)c2)cc1` [4-(6-amino-5-(2-oxo-2,3,4,5-tetrahydro-1H-benzo[b]azepin-7-yl)pyridin-3-yl)-N,N-diethylbenzenesulfonamide], under setting [2], the IC50 is less than 0.15 µM.
With `CN(C1CC1)S(=O)(=O)c1ccc(-c2cnc(N)c(-c3ccc4c(c3)C(C)(C)NC4=O)c2)cc1` [4-(6-amino-5-(3,3-dimethyl-1-oxoisoindolin-5-yl)pyridin-3-yl)-N-cyclopropyl-N-methylbenzenesulfonamide], the IC50 was less than 0.01 µM under setting [1] and less than 0.01 µM under setting [2].
Take `CCN(CC)S(=O)(=O)c1ccc(-c2cnc(N)c(-c3ccc4c(O)n[nH]c4c3)c2)cc1` [4-(6-amino-5-(3-hydroxy-1H-indazol-6-yl)pyridin-3-yl)-N,N-diethylbenzenesulfonamide]: under setting [2], the IC50 is less than 0.15 µM.
Consider `CCN(CC)S(=O)(=O)c1ccc(-c2cnc(N)c(-c3ccc4c(=O)[nH]oc4c3)c2)cc1` [4-(6-amino-5-(3-oxo-2,3-dihydrobenzo[d]isoxazol-6-yl)pyridin-3-yl)-N,N-diethylbenzenesulfonamide], for which the IC50 under setting [2] was less than 0.15 µM.
As to `CN(C1CC1)S(=O)(=O)c1ccc(-c2cnc(N)c(-c3ccc4c(c3)C3(CC3)NC4=O)c2)cc1` [4-(6-amino-5-(3′-oxospiro[cyclopropane-1,1′-isoindolin]-6′-yl)pyridin-3-yl)-N-cyclopropyl-N-methylbenzenesulfonamide], the IC50 was less than 0.01 µM under setting [1] and less than 0.01 µM under setting [2].
Turning to `Nc1ncc(-c2ccc(S(=O)(=O)NC3CC3)cc2)cc1-c1ccc2c(c1)C1(CC1)NC2=O` [4-(6-amino-5-(3′-oxospiro[cyclopropane-1,1′-isoindolin]-6′-yl)pyridin-3-yl)-N-cyclopropylbenzenesulfonamide], the IC50 is less than 0.01 µM under setting [1] and less than 0.01 µM under setting [2].
In the case of `CC1(C)CNC(=O)c2ccc(-c3cc(-c4ccc(S(=O)(=O)NC5CC5)cc4)cnc3N)cc21` [4-(6-amino-5-(4,4-dimethyl-1-oxo-1,2,3,4-tetrahydroisoquinolin-6-yl)pyridin-3-yl)-N-cyclopropylbenzenesulfonamide], the IC50 runs as follows: under setting [1], less than 0.01 µM; under setting [2], less than 0.01 µM.
For the compound `CCN(CC)S(=O)(=O)c1ccc(-c2cnc(N)c(-c3ccc4c(O)ncnc4c3)c2)cc1` [4-(6-amino-5-(4-hydroxyquinazolin-7-yl)pyridin-3-yl)-N,N-diethylbenzenesulfonamide], the IC50 reads like this: under setting [1], less than 0.05 µM; under setting [2], less than 0.01 µM.
For `CCNS(=O)(=O)c1ccc(-c2cnc(N)c(-c3ccc4c(O)ncnc4c3)c2)cc1` [4-(6-amino-5-(4-hydroxyquinazolin-7-yl)pyridin-3-yl)-N-ethylbenzenesulfonamide], in that order: less than 0.05 µM and less than 0.01 µM.
`CN(C1CC1)S(=O)(=O)c1ccc(-c2cnc(N)c(-c3ccc4c(c3)NCCNC4=O)c2)cc1` [4-(6-amino-5-(5-oxo-2,3,4,5-tetrahydro-1H-benzo[e][1,4]diazepin-8-yl)pyridin-3-yl)-N-cyclopropyl-N-methylbenzenesulfonamide]: the IC50 was less than 0.01 µM under setting [1] and less than 0.01 µM under setting [2].
Turning to `CN(C1CC1)S(=O)(=O)c1ccc(-c2cnc(N)c(-c3ccc4c(c3)OCCNC4=O)c2)cc1` [4-(6-amino-5-(5-oxo-2,3,4,5-tetrahydrobenzo[f][1,4]oxazepin-8-yl)pyridin-3-yl)-N-cyclopropyl-N-methylbenzenesulfonamide], the IC50 was less than 0.01 µM under setting [1] and less than 0.01 µM under setting [2].
In the case of `Nc1ncc(-c2ccc(S(=O)(=O)NC3CC3)cc2)cc1-c1ccc2c(c1)OCCNC2=O` [4-(6-amino-5-(5-oxo-2,3,4,5-tetrahydrobenzo[f][1,4]oxazepin-8-yl)pyridin-3-yl)-N-cyclopropylbenzenesulfonamide], the half-maximal inhibitory concentration (IC50) runs as follows: under setting [1], less than 0.01 µM; under setting [2], less than 0.01 µM.
Take `CCN(C)S(=O)(=O)c1ccc(-c2cnc(N)c(-c3cc4c(s3)C(=O)NCC4)c2)cc1` [4-(6-amino-5-(7-oxo-4,5,6,7-tetrahydrothieno[2,3-c]pyridin-2-yl)pyridin-3-yl)-N-ethyl-N-methylbenzenesulfonamide]: the IC50 under setting [1] is less than 0.05 µM and the IC50 under setting [2] was less than 0.01 µM.
The matching figures for `CN(C1CC1)S(=O)(=O)c1ccc(-c2cnc(N)c(-c3cc4c(cn3)C(=O)NCC4)c2)cc1` [4-(6-amino-5-(8-oxo-5,6,7,8-tetrahydro-2,7-naphthyridin-3-yl)pyridin-3-yl)-N-cyclopropyl-N-methylbenzenesulfonamide]: less than 0.01 µM and less than 0.01 µM.
Regarding `N#Cc1ccc(-c2cnc(N)c(-c3cc4c(cn3)C(=O)NCC4)c2)cc1` [4-(6-amino-5-(8-oxo-5,6,7,8-tetrahydro-2,7-naphthyridin-3-yl)pyridin-3-yl)benzonitrile], the IC50 was less than 0.05 µM under setting [1] and less than 0.01 µM under setting [2].
On to `CNC(=O)N1CCc2cc(-c3nc(-c4ccc(S(=O)(=O)N(C)C5CC5)cc4)cnc3N)ccc21` [5-(3-amino-6-(4-(N-cyclopropyl-N-methylsulfamoyl)phenyl)pyrazin-2-yl)-N-methylindoline-1-carboxamide], for which the IC50 was less than 0.05 µM under setting [1] and less than 0.01 µM under setting [2].
The matching figures for `CC1(C#N)CCc2cc(-c3cnc(N)c(-c4ccc5c(c4)CCNC5=O)n3)ccc21` (stereo not drawn) [5-(5-amino-6-(1-oxo-1,2,3,4-tetrahydroisoquinolin-6-yl)pyrazin-2-yl)-1-methyl-2,3-dihydro-1H-indene-1-carbonitrile]: less than 0.05 µM and less than 0.01 µM.
As to `CN(C1CC1)S(=O)(=O)c1ccc(-c2cnc(N)c(-c3ccc4c(c3)CCNC4=O)n2)cn1` [5-(5-amino-6-(1-oxo-1,2,3,4-tetrahydroisoquinolin-6-yl)pyrazin-2-yl)-N-cyclopropyl-N-methylpyridine-2-sulfonamide], the IC50 is, setting by setting: under setting [1], less than 0.05 µM; under setting [2], less than 0.01 µM.
For `CC1(C#N)CCc2cc(-c3cnc(N)c(-c4ccc5c(c4)CCNC5=O)c3)ccc21` (stereo not drawn) [5-(6-amino-5-(1-oxo-1,2,3,4-tetrahydroisoquinolin-6-yl)pyridin-3-yl)-1-methyl-2,3-dihydro-1H-indene-1-carbonitrile], in that order: less than 0.15 µM and less than 0.01 µM.
The matching figures for `Nc1ncc(-c2ccc(C(=O)NCC(F)(F)F)s2)cc1-c1ccc2c(c1)CCNC2=O` [5-(6-amino-5-(1-oxo-1,2,3,4-tetrahydroisoquinolin-6-yl)pyridin-3-yl)-N-(2,2,2-trifluoroethyl)thiophene-2-carboxamide]: less than 0.15 µM and less than 0.05 µM.
`CCN(C)S(=O)(=O)c1ccc(-c2cnc(N)c(-c3ccc4c(c3)CCNC4=O)c2)s1` [5-(6-amino-5-(1-oxo-1,2,3,4-tetrahydroisoquinolin-6-yl)pyridin-3-yl)-N-ethyl-N-methylthiophene-2-sulfonamide]: the half-maximal inhibitory concentration (IC50) runs as follows: under setting [1], less than 0.05 µM; under setting [2], less than 0.01 µM.
The matching figures for `Nc1ncc(-c2ccc3c(c2)CNS3(=O)=O)cc1-c1ccc2c(c1)CCNC2=O` [6-(2-amino-5-(1,1-dioxido-2,3-dihydrobenzo[d]isothiazol-5-yl)pyridin-3-yl)-3,4-dihydroisoquinolin-1(2H)-one]: less than 0.05 µM and less than 0.01 µM.
Consider `CN(C)c1nc(-c2cnc(N)c(-c3ccc4c(c3)CCNC4=O)c2)cs1` [6-(2-amino-5-(2-(dimethylamino)thiazol-4-yl)pyridin-3-yl)-3,4-dihydroisoquinolin-1(2H)-one], for which, under setting [2], the IC50 is less than 0.05 µM.
Consider `Nc1ncc(-c2ccc3c(c2)CC(=O)N3)cc1-c1ccc2c(c1)CCNC2=O` [6-(2-amino-5-(2-oxoindolin-5-yl)pyridin-3-yl)-3,4-dihydroisoquinolin-1(2H)-one], for which the IC50 by setting is: under setting [1], less than 0.05 µM; under setting [2], less than 0.05 µM.
For the compound `CN(C)C(C)(C)c1ccc(-c2cnc(N)c(-c3ccc4c(c3)CCNC4=O)c2)cc1` [6-(2-amino-5-(4-(2-(dimethylamino)propan-2-yl)phenyl)pyridin-3-yl)-3,4-dihydroisoquinolin-1(2H)-one], the IC50 under setting [1] is less than 0.05 µM and the IC50 under setting [2] was less than 0.01 µM.
